This is an account of results in ChEMBL document CHEMBL1132671, “The synthesis of a new class of oxytocin antagonists” (Bioorg Med Chem Lett, 1999).

Test [1] is filed under the species Rattus norvegicus. Nature of the test: Dose inhibiting the response of a dose of oxytocin to half of the response in rat. Particulars: for ED50: Rattus norvegicus, read-out: ID50 (the source's name). Type of test: functional.
The target of the next test is T1, Oxytocin receptor (Homo sapiens, UniProt P30559).
T1 sequence (P30559 whole entry): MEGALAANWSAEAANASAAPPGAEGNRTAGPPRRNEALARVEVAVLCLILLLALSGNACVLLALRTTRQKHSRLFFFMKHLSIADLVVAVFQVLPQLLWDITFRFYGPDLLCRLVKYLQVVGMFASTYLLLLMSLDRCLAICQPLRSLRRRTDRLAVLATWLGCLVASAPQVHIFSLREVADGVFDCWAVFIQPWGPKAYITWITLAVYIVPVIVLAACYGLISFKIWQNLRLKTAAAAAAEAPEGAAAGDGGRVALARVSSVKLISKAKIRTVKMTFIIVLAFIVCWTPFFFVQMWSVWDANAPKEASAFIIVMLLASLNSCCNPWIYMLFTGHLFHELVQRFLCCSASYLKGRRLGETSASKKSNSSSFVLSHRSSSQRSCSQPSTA
In words: […] antagonistic activity against cloned human oxytocin receptor over-expressed in a stable HEK293 cell line. Type of test: functional.

The species entered for test [2] is Rattus norvegicus. Nature of the test: Dose inhibiting the response of a dose of oxytocin to half of the response in rat;NA means no activity. The class given is functional, organism-based.

Activity calls are given as the source filed them. No cut-off for these calls is given here.

What is called Ki is a measure of affinity in units of concentration, obtained from inhibition or displacement. Low values mean tighter binding, high ones weaker binding.

In the case of `CC[C@@H](C)[C@@H]1NC(=O)[C@H]([C@@H](C)CC)NC(=O)[C@@H](Cc2c[nH]c3ccccc23)NC(=O)CCSCC[C@@H](C(=O)N(C)[C@@H](CCCN)C(N)=O)NC(=O)[C@H](CC(N)=O)NC1=O`, in the test filed under Rattus norvegicus [1], the ED50 worked out at 0.0029 µmol/kg. The compound `CC[C@@H](C)[C@@H]1NC(=O)[C@H]([C@@H](C)CC)NC(=O)[C@@H](Cc2c[nH]c3ccccc23)NC(=O)CCCSC[C@H](CCCN)NC(=O)[C@H](CC(N)=O)NC1=O` showed a Ki at Oxytocin receptor of 4 nM. In addition, the ID50 in the test filed under Rattus norvegicus [1] turned out to be 5.4 nmol/kg. As for `CC[C@@H](C)[C@@H]1NC(=O)[C@H]([C@@H](C)CC)NC(=O)[C@@H](Cc2c[nH]c3ccccc23)NC(=O)CCSCC[C@@H](C(N)=O)NC(=O)[C@H](CC(N)=O)NC1=O`, the ED50 in the test listed under Rattus norvegicus [1] came to 0.048 µmol/kg. `CC[C@@H](C)[C@@H]1NC(=O)[C@H]([C@@H](C)CC)NC(=O)[C@@H](Cc2c[nH]c3ccccc23)NC(=O)CCCSCC2CCCN2C(=O)[C@H](CC(N)=O)NC1=O` (single isomer, unassigned) yielded a Ki at Oxytocin receptor of 1000 nM. The ID50 entry in the test listed under Rattus norvegicus [2] was “inactive”. At Oxytocin receptor, `CC[C@@H](C)[C@@H]1NC(=O)[C@H]([C@@H](C)CC)NC(=O)[C@@H](Cc2c[nH]c3ccccc23)NC(=O)CCCSCC(CCCCN)NC(=O)[C@H](CC(N)=O)NC1=O` (single isomer, unassigned) had a Ki of 2.8 nM. The ED50 in the test filed under Rattus norvegicus [1] was 0.017 µmol/kg. On to `CC[C@@H](C)[C@@H]1NC(=O)[C@H]([C@@H](C)CC)NC(=O)[C@@H](Cc2c[nH]c3ccccc23)NC(=O)CCCSCC(CCCN)NC(=O)[C@H](CC(N)=O)NC1=O` (single isomer, unassigned), for which the affinity on Oxytocin receptor corresponds to a Ki of 26 nM. Further, the ID50 in the test listed under Rattus norvegicus [1] was 32 nmol/kg.
